Where a SMILES comes first, the peptide text is derived from it. The star is where a group is joined. X1 = CCCCCCCCCCCCCCNC(=O)OC[C@H](C*)OC(=O)NCCCCCCCCCCCCCC; Palmitoyl = CCCCCCCCCCCCCCCC(=O)*
What was measured:
NF-κB and MAPK pathways = assay: Immunoblot of NF-κB and MAPK signaling in CD8+ cDCs; format: cell-based, mice; details: 200 nM, 0–120 min, western blot
Procedure: Immunoblot assay was performed as described elsewhere ([40], [41]). Briefly, whole-cell lysates were prepared by direct lysis in SDS loading buffer. Lysates were separated by 10% SDSPAGE and transferred to a polyvinylidene fluoride membrane (Millipore IPVH00010) for probing with antibody. Antibodies against phosphorylated NF-κB p65 (p-p65) (Ser 536) (Clone 93H1), p-SAPK/JNK (Thr183/Tyr185) (Clone 81E11), SAPK/JNK (Clone 56G8), p-p38 (Thr180/Tyr182) (Clone 3D7), and p38 (Clone D13E1) were purchased from Cell Signaling Technology. Antibodies against IκBα ([…]), p-ERK (Clone E-4), and ERK (Clone K-23) were purchased from Santa Cruz Biotech. The chemiluminescence signals were captured by Amersham Image 600 system (GE Healthcare).
Figure 4 SUP3 stimulated maturation of CD8^+ conventional dendritic cells (cDCs). (A) Purified CD8^+ cDCs were treated with SUP3 (200 nM) or Pam3 (200 nM) in the presence of granulocyte-macrophage colony-stimulating factor (GM-CSF) (20 ng/mL) for 24 h. The surface expression of costimulatory and major histocompatibility complex (MHC) molecules were then analyzed by flow cytometry. Representative data from three independent experiments were shown. […] Splenic CD8^+ cDCs were enriched, and surface expression of CD40 and CD86 was analyzed by flow cytometry. […] Supernatants were harvested 24 and 48 h post-stimulation, and cytokines were measured by ELISA. […]

[1] = Antigen deposition (OVA-AF647) in draining lymph nodes; format: in vivo, mice; details: OVA-AF647 25 µg per mouse s.c. with 2 nmol per mouse, 24 h; vs OVA alone or OVA with Pam3
Procedure: Wild-type mice were s.c. injected with OVA-AF647 alone (25 µg per mouse; Molecular Probes O-34784), or mixtures of OVA-AF647 with SUP3 (2 nmol per mouse) or Pam3 (2 nmol per mouse) at groin. Inguinal lymph nodes were isolated 24 h post-injection, and then immune cells were analyzed by flow cytometry.
Figure 6 SUP3 enhanced antigen deposition in draining lymph nodes. Mice were immunized at groin by s.c. injection of ovalbumin (OVA)-Alexa Fluor 647 (AF647) (25 µg per mouse) with or without SUP3 (2 nmol per mouse) or Pam3 (2 nmol per mouse) for 24 h. Inguinal lymph nodes were isolated, and immune cells were analyzed for levels of AF647 fluorescence by flow cytometry (A). The number of OVA-AF647 positive cells was calculated in (B). Representative data were from two independent experiments with three mice in each group.

splenic B cells = assay: Total IgM production by B cells in vitro; format: cell-based, mice; details: 200 nM, 3 or 5 days, ELISA; vs Pam3
Source text: Splenic DCs were purified as described previously ([37]). CD8^+ cDCs expanded by B16-Flt3L inoculation were enriched, and then CD8^+ cDCs were positively sorted by MACS technology (Miltenyi Biotec). Splenic B cells were purified through negative selection by Streptavidin-MicroBeads (Miltenyi Biotec 130-048-102) combined with different antibodies cocktail to exclude non-B cells. The antibodies cocktail was composed of biotinylated antibodies against CD4 (T cells and DCs) (eBioscience, clone GK1.5), CD8 (T cells and DCs) (eBioscience, clone 53-6.7), CD43 (T cells, monocytes, granulocytes) (eBioscience, clone eBioR2/60), and Ter119 (erythrocytes) (eBioscience, clone TER119). B cells were further purified through MACS LS column (Miltenyi Biotec 130-042-401).
Splenic DCs (5 × 10^5 cells/mL) were stimulated by Pam3 (200 nM), SUP3 (200 nM), or CpG ODN 1668 (20 nM; Adipogen IAX-200-001) in the GM-CSF (20 ng/mL) supplemented medium for indicated periods. […] Cytokines (IL-6, eBioscience 88-7064; TNFα, eBioscience 88-7324; IL-12p40, BioLegend 431604), chemokine (MIP1α, R&D Systems DY450-05), and total IgM (eBioscience, 88-50470) were quantified by ELISA kits following the instructions of manufacturers.
Figure 7 SUP3 promoted stronger B cell activation in vitro. […] (B) Supernatants were harvested 3 or 5 days post-stimulation, and total IgM in the supernatant was determined by ELISA. […]

With `CCCCCCCCCCCCCCCC(=O)N[C@@H](CSC[C@@H](COC(=O)NCCCCCCCCCCCCCC)OC(=O)NCCCCCCCCCCCCCC)C(=O)NCC(=O)N[C@@H](CCCCN)C(=O)N[C@@H](CCCCN)C(=O)N[C@@H](CCCCN)C(=O)O` [SUP3, (2S,5S,8S,14R,18R)-2,5,8-tris(4-aminobutyl)-4,7,10,13,21-pentaoxo-14-palmitamido-18-((tetradecylcarbamoyl)oxy)-20-oxa-16-thia-3,6,9,12,22-pentaazahexatriacontan-1-oic acid] (Palmitoyl-C(X1)GKKK-OH) the “NF-κB and MAPK signaling (p-p65, IκBα, p-ERK, p-JNK, p-p38) in CD8+ cDCs” value (NF-κB and MAPK pathways) was “induced phosphorylation of p65 and degradation of IκBα and enhanced phosphorylation of ERK, JNK, and p38”, the “numbers of antigen-containing CD8+ cDCs, CD11b+ cDCs, macrophages, and monocytes in inguinal lymph nodes” value [1] was “increased numbers” and the “antigen-independent production of IgM by B cells” value (splenic B cells) was “more”.
